For 18 molecules, IC50, EC50 and IA results are on record in ChEMBL document CHEMBL1141036, “2-Alkyl-3-(1,2,3,6-tetrahydropyridin-4-yl)-1H-indoles as novel 5-HT6 receptor agonists” (Bioorg Med Chem Lett, 2005).

The target in test [1] is T1, 5-hydroxytryptamine receptor 6 (Homo sapiens, UniProt P50406). Kind of test: Displacement of [3H]LSD binding to cloned human 5-hydroxytryptamine 6 receptor expressed in HEK cells. It is filed as cell-based, HEK293.
A short description of test [2]: Concentration to stimulate the cAMP production in BHK cells. It is filed as functional, cell-based. The conditions noted are these: Homo sapiens. In general terms: Cyclic AMP is a second messenger, typically raised through Gs and lowered through Gi signalling.
The target in test [3] is T1, 5-hydroxytryptamine receptor 6. Nature of the test: Intrinsic activity (IA) at the 5-HT6 receptor determined by measuring their cAMP production in BHK cells and compared to the effect elicited by 5-HT. It is filed as functional, cell-based. Particulars: Mesocricetus auratus.
For test [4] the target is unchanged. Kind of test: Displacement of [3H]LSD binding to cloned human 5-hydroxytryptamine 6 receptor stably expressed in HEK cells. It is filed as cell-based, HEK293. On the technique in general: Loss of bound radioactivity is the signal in a displacement assay; it reports binding, not function.
For test [5], the target named is T2, 5-hydroxytryptamine receptor 1A (Rattus norvegicus, UniProt P19327).
T2 sequence (P19327 whole entry): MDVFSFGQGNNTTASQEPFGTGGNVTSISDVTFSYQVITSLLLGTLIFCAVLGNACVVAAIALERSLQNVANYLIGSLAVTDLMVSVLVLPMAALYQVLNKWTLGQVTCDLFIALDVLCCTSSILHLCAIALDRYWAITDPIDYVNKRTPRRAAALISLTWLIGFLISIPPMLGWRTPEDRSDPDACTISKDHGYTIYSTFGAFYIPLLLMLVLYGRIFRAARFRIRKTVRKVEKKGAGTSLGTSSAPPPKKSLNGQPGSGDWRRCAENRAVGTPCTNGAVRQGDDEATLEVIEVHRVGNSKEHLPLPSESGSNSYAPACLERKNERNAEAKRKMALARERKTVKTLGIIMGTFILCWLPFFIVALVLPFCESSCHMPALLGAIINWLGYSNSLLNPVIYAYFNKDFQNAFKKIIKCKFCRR
Kind of test: Inhibitory activity against 5-hydroxytryptamine 1A receptor in rat.

Test [6] addresses 5-hydroxytryptamine receptor 1B (Rattus norvegicus, UniProt P28564). Kind of test: Inhibitory activity against 5-hydroxytryptamine 1B receptor in rat.
Test [7] has as its target T1, 5-hydroxytryptamine receptor 6. Kind of test: Inhibitory activity against 5-hydroxytryptamine 6 receptor in human.
Test [8] has as its target 5-hydroxytryptamine receptor 7 (Homo sapiens, UniProt P34969). Kind of test: Inhibitory activity against 5-hydroxytryptamine 7 receptor in human.
For test [9], the target named is 5-hydroxytryptamine receptor 2A (Homo sapiens, UniProt P28223). Nature of the test: Inhibitory activity against 5-hydroxytryptamine 2A receptor in human.
The target in test [10] is 5-hydroxytryptamine receptor 4 (Cavia porcellus, UniProt O70528). Kind of test: Inhibitory activity against 5-hydroxytryptamine 4 receptor in guinea pig.
Test [11] concerns the target 5-hydroxytryptamine receptor 3A (Mus musculus) (UniProt P23979). Kind of test: Inhibitory activity against 5-hydroxytryptamine 3 receptor expressed in NG 108 cells.
Test [12] concerns the target T3, 5-hydroxytryptamine receptor 2C (Homo sapiens, UniProt P28335).
T3 sequence (P28335 whole entry): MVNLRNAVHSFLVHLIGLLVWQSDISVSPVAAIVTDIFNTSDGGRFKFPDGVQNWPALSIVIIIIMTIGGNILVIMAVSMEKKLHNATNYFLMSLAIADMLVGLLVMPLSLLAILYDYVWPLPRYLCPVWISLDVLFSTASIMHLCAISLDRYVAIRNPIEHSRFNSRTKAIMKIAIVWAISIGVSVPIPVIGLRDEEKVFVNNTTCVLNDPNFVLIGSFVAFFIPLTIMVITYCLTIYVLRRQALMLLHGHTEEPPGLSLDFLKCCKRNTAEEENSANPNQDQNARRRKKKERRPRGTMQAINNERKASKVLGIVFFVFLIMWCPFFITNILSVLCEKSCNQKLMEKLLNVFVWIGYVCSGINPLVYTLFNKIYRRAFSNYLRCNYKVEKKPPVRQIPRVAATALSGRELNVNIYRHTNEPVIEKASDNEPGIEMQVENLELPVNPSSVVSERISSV
Nature of the test: Inhibitory activity against 5-hydroxytryptamine 2C receptor in human.

Test [13] deals with T1, 5-hydroxytryptamine receptor 6. Kind of test: Displacement of [3H]LSD binding to cloned h5-HT6 receptors stably expressed in HEK cells. It is filed as cell-based, HEK293.

Chain of 5-hydroxytryptamine receptor 7 (P34969 whole entry): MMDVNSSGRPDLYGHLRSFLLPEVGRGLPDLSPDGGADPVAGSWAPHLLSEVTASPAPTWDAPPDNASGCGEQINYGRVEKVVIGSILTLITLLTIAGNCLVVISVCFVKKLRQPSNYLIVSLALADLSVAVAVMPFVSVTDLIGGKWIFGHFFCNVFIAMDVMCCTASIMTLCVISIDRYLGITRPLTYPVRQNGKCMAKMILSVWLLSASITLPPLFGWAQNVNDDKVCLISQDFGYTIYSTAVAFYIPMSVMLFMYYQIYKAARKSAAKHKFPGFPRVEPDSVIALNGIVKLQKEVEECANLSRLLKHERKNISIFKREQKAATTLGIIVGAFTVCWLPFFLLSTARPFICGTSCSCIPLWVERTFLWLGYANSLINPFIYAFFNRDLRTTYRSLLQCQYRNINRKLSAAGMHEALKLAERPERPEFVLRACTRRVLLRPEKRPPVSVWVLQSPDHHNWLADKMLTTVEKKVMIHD
Chain of 5-hydroxytryptamine receptor 2A (P28223 whole entry): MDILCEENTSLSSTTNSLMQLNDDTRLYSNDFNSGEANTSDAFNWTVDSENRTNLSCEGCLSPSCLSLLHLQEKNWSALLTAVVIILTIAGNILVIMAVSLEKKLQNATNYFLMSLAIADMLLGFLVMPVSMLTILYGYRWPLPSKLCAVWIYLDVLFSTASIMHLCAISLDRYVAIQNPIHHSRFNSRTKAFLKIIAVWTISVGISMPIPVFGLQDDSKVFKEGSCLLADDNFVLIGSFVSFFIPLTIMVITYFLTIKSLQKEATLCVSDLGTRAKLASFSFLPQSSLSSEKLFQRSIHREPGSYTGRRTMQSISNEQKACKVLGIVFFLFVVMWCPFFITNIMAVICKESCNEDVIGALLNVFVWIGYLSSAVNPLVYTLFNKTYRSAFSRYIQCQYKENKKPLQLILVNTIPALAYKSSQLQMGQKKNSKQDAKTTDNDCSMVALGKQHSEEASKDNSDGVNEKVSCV
T1 sequence (P50406 whole entry): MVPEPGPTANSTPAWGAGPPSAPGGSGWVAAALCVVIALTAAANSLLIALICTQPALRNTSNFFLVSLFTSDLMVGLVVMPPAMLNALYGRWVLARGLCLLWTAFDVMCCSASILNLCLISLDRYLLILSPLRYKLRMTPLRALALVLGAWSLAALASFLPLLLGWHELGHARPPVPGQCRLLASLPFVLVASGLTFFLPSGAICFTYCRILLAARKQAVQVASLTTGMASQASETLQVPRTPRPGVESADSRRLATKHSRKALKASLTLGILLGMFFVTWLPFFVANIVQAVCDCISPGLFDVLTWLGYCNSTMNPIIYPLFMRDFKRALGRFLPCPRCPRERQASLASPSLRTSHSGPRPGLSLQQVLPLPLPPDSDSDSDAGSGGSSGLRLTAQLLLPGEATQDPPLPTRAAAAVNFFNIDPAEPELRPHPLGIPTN
Chain of 5-hydroxytryptamine receptor 1B (P28564 whole entry): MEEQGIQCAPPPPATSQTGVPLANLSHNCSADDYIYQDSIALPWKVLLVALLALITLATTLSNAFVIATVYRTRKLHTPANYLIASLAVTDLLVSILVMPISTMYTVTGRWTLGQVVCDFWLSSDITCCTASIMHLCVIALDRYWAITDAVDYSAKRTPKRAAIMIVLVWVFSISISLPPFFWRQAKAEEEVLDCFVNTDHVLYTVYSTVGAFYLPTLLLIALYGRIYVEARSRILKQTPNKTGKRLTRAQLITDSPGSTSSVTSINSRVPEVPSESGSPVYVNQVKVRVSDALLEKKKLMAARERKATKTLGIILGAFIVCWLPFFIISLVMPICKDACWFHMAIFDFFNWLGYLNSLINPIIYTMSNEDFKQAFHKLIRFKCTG
Chain of 5-hydroxytryptamine receptor 4 (O70528 whole entry): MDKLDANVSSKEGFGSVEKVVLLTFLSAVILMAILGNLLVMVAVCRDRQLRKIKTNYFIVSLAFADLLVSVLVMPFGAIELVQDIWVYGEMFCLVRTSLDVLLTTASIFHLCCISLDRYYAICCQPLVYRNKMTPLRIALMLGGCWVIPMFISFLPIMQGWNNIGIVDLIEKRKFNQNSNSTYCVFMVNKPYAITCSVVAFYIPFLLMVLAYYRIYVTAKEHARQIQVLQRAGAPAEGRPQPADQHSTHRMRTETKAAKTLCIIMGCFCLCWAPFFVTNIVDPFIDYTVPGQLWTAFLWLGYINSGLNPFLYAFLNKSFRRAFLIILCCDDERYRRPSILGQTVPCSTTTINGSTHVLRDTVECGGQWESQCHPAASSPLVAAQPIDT
Chain of 5-hydroxytryptamine receptor 3A (Mus musculus) (P23979 whole entry, looked up): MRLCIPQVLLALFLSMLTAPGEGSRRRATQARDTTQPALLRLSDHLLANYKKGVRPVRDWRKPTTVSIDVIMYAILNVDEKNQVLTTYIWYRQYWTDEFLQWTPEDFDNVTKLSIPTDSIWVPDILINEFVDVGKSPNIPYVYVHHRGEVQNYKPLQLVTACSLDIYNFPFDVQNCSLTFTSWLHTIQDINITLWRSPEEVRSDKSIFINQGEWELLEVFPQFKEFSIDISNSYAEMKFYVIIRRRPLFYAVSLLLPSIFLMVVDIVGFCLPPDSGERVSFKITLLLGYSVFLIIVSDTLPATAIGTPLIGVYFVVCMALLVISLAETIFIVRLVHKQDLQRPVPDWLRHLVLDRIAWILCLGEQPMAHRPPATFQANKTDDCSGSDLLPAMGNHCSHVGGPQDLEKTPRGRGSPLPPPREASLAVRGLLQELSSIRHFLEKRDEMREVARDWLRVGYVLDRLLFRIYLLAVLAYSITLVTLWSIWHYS

For orientation: IC50 means the midpoint of a concentration-inhibition curve. In test [1], `CCCCN1CC=C(c2c(C)[nH]c3ccc(Cl)cc23)CC1` registered an IC50 of 50 nM.

As usually defined, the EC50 is the concentration needed to bring the measured effect to its halfway point. The low end stands for a more potent agent, the high end for a less potent agent. In test [1], `Cc1[nH]c2ccc(Cl)cc2c1C1=CCN(C)CC1` returned an IC50 of 10 nM. Also, the EC50 in test [2] turned out to be 2.9 nM. In [3], this molecule had an IA of 152%.

Turning to `CCc1[nH]c2ccc(OC)cc2c1CCN(C)C`, the IC50 is 85 nM in test [4]; > 1000 nM in test [5]; > 1000 nM in test [6]; 85 nM in [7]; 1500 nM in [8]; 620 nM in test [9]. Besides, the IC50 in test [10] is 44 nM; in test [11] it was > 1000 nM. Further, a half-maximal effect in test [2] (EC50) was put at 710 nM. In test [3], the IA came out at 113%.

On to `COc1ccc2[nH]c(C)c(C3=CCNCC3)c2c1`, for which the IC50 in test [1] was 80 nM; in test [5], 430 nM; in test [6] it was 310 nM; in [7] it was 80 nM; in test [8], 9800 nM; in test [9], > 1000 nM. In addition, the IC50 was > 1000 nM in [12], 9800 nM in [10] and > 1000 nM in test [11]. In test [2], this molecule came in with an EC50 of 5.8 nM. This molecule also came in with an IA in [3] of 100%.

Take `COc1ccc2[nH]cc(C3=CCNCC3)c2c1` [RU-24969]: in [1], the IC50 turned out to be 79 nM. In test [2], this molecule had an EC50 of 200 nM. Further, in test [3], the IA stood at 55%.

As to `Cc1[nH]c2ccc(Cl)cc2c1C1=CCNCC1`, the IC50 in test [5] amounted to 660 nM; in test [6], 180 nM; in [8], 3000 nM; in test [9], 240 nM; in [12], 450 nM; in test [10], 620 nM. Besides, the IC50 in test [11] is 34 nM. This molecule returned an EC50 in test [2] of 1 nM. This molecule registered an IA in test [3] of 92%.

In [1], `CCCc1[nH]c2ccc(Cl)cc2c1C1=CCNCC1` showed an IC50 of 40 nM.

As to `CCc1[nH]c2ccc(Cl)cc2c1C1=CCNCC1`, the IC50 in test [1] amounted to 30 nM.

The molecule `CC(C)c1[nH]c2ccc(Cl)cc2c1C1=CCNCC1` gave an IC50 in [1] of 100 nM.

For the molecule `CCCN1CC=C(c2c(C)[nH]c3ccc(Cl)cc23)CC1`, the IC50 in test [1] was 60 nM.

In test [1], `Cc1[nH]c2ccc(Cl)cc2c1CCN(C)C` registered an IC50 of 40 nM. Also, the midpoint of the response in test [2], the EC50, lay at 16 nM. This molecule had an IA in test [3] of 53%.

On to `CCN1CC=C(c2c(C)[nH]c3ccc(Cl)cc23)CC1`, for which the IC50 in test [1] was found to be 30 nM.

Turning to `C1=C(c2c(-c3ccccc3)[nH]c3ccccc23)CCNC1`, the concentration for half-maximal inhibition (IC50) in test [1] turned out to be 2 nM.

Molecule `CCc1[nH]c2ccc(OC)cc2c1C1=CCNCC1` registered an IC50 in test [13] of 90 nM. The same molecule gave an EC50 in test [2] of 7.9 nM. In addition, in test [3], the IA came to 100%.

As to `Cc1[nH]c2ccc(Cl)cc2c1C1=CC2CCC(C1)N2C` (stereo not given), the IC50 in [1] was determined as 40 nM. The molecule also showed an EC50 in [2] of 10000 nM. The molecule also registered an IA in [3] of 75%.

For `Cc1[nH]c2ccc(Cl)cc2c1C1=CCN(Cc2ccccc2)CC1`, in test [1], the IC50 stood at 600 nM.

`CCc1[nH]c2ccc(Cl)cc2c1C1=CCN(CC)CC1` came in with an IC50 in test [1] of 70 nM.

`CCc1[nH]c2ccc(OC)cc2c1C1CCNCC1` yielded an IC50 in test [13] of 300 nM.
